Measured values reported in patent US20060276523A1 (priority 2003, published 2006).
Where two headings read alike, the source gives them in different places.

Assays:
[1] = test system: isolated rabbit thoracic aorta preparations; experiment: Studies on vascular tone: vasorelaxation of noradrenaline-precontracted aortic rings; type: cell-based; conditions: rabbit aortic rings precontracted with noradrenaline 1 μM; for IC50: functional endothelium, read-out: IC50 (μM) ± sem (vasorelaxation)
Description: The ability of the nitroderivatives of ARB to induce vasorelaxation in comparison to native ARB, was tested in vitro in isolated rabbit thoracic aorta preparations (Wanstall J. C. et al., Br. J. Pharmacol., 134:463-472, 2001). Male New Zealand rabbits were anaesthetized with thiopental-Na (50 mg/kg, iv), sacrificed by exsanguinations and then the thorax was opened and the aorta dissected. Aortic ring preparations (4 mm in length) were set up in physiological salt solution (PSS) at 37° C. in small organ chambers (5 ml). The composition of PSS was (mM): NaCl 130, NaHCO3 14.9, KH2PO4 1.2, MgSO4 1.2, HEPES 10, CaCl2, ascorbic acid […] and glucose 1.1 (95% O2/5% CO2; pH 7.4). Each ring was mounted under 2 g passive tension. Isometric tension was recorded with a Grass transducer (Grass FT03) attached to a BIOPAC MP150 System. Preparations were allowed to equilibrate for 1 h, and then contracted submaximally with noradrenaline (NA, 1 μM) and, when the contraction was stable, acetylcholine (ACh, 10 μM) was added. A relaxant response to ACh indicated the presence of a functional endothelium. […] When a stable precontraction was reached, a cumulative concentration-response curve to either of the vasorelaxant agents was obtained in the presence of a functional endothelium. Each arterial ring was exposed to only one combination of inhibitor and vasorelaxant. Moreover, the effect of the soluble guanylyl cyclase inhibitor ODQ (1-H-(1,2,4)-oxadiazol(4,3-a)quinoxalin-1-one) on vasorelaxation elicited by the compounds was examined preincubating the aortic rings with ODQ (10 μM) for 20 min.
Responses to relaxing agents are expressed as a percentage of residual contraction and plotted against concentration of test compound. IC50 values (where IC50 is the concentration producing 50% of the maximum relaxation to the test compound) were interpolated from these plots.
During the experimental period, the plateau obtained with NA was stable without significant spontaneous loss of contraction in the aortic rings.

[2] = test system: human platelets; experiment: Antiplatelet activity: U46619-induced platelet aggregation in platelet rich plasma (Born method); type: cell-based; conditions: 2 min, human PRP, aggregating agent U46619, incubation 2 min at 37° C., read-out: Platelet aggregation (PRP) (incubation time: 2 min) IC50
Description: Aggregating agent used was U46619, a TxA2 analog, based on the evidence that this agonist is sensitive to the effects of nitric oxide. Compounds were incubated at 37° C. for 2 min before adding the aggregating agent. Aggregation was followed for 5 min and the maximal amplitude (cm) was measured. DMSO (0.05% final concentration) was used as vehicle. Compounds were tested at concentrations ranging from 10 to 100 μM.

[3] = test system: spontaneously hypertensive rats (SHRs); experiment: Antihypertensive activity in conscious spontaneously hypertensive rats (telemetry); type: in vivo; conditions: SHR; for Systolic blood pressure (mmHg), 30 min: 30 min after dosing; for Systolic blood pressure (mmHg), 30 min / Systolic blood pressure (mmHg), 12 hrs / Systolic blood pressure (mmHg), 24 hrs: losartan 10 mg/kg po, EX. 2 12 mg/kg po (equimolar); for Systolic blood pressure (mmHg), 12 hrs: 12 hrs after dosing; for Systolic blood pressure (mmHg), 24 hrs: 24 hrs after dosing; for Systolic blood pressure (mmHg), Baseline: groups losartan 10 mg/kg po, EX. 2 12 mg/kg po
Description: Systolic blood pressure (SBP) and heart rate were monitored by telemetry at different time points after dosing.

[4] = test system: RAW 264.7 macrophages; experiment: Inhibition of LPS-induced nitrite accumulation (Griess reaction); type: cell-based; conditions: for Nitrite (% vs vehicle): 25 μM, LPS 1 μg/ml for 16 hrs, RAW 264.7
Description: The experiments were performed using RAW 264.7 monocyte macrophage cell line. Cells were stimulated in the presence of lipopolysaccharide (LPS) (1 μg/ml) for 16 hrs. At the end of the incubation, the culture media were collected and analyzed for nitrite content using a standard Griess reaction.
The results reported in Table 2 are expressed as % of nitrite content for each treatment vs. LPS-treated samples.

## CCCCc1nc(Cl)c(COC(=O)CCCO[N+](=O)[O-])n1Cc1ccc(-c2ccccc2-c2nn[nH]n2)cc1 [EX. 2, 2-butyl-4-chloro-1-[[2′-(1H-tetrazol-5-yl)[1,1′-biphenyl]-4-yl]methyl]-1H-imidazole-5-methanol 4-nitrooxybutanoic acid ester]
[1]; Oryctolagus cuniculus
  IC50: 15 ± 3 µM
[2]
  IC50: 11 µM
[3]; daily oral dose for 3 days
  Systolic blood pressure (mmHg), 30 min: 115 mmHg
  Systolic blood pressure (mmHg), 12 hrs: 126 mmHg
  Systolic blood pressure (mmHg), 24 hrs: 128 mmHg
  reduction in blood pressure levels over the treatment period (in words): able to induce a clear reduction in blood pressure levels
[3]
  Systolic blood pressure (mmHg), Baseline: 143 mmHg

## CCCCc1nc(Cl)c(COC(=O)c2cccc(CO[N+](=O)[O-])c2)n1Cc1ccc(-c2ccccc2-c2nn[nH]n2)cc1 [EX. 4, 2-butyl-4-chloro-1-[[2′-(1H-tetrazol-5-yl)[1,1′-biphenyl]-4-yl]methyl]-1H-imidazole-5-methanol 3-(nitrooxymethyl) benzoic acid ester]
[1]; Oryctolagus cuniculus
  IC50: 54 ± 16 µM
[4]
  Nitrite (% vs vehicle): 61 ± 3 % vs vehicle
[4]; RAW 264.7, LPS
  inhibition of accumulation of nitrites induced by LPS (in words): able to inhibit the accumulation of nitrites induced by LPS

## CCCCc1nc(Cl)c(COC(=O)CCCCCO[N+](=O)[O-])n1Cc1ccc(-c2ccccc2-c2nnn[nH]2)cc1 [EX. 5, 2-butyl-4-chloro-1-[[2′-(H-tetrazol-5-yl)[1,1′-biphenyl]-4-yl]methyl]-1H-imidazole-5-methanol 6-nitrooxyhexanoic acid ester]
[1]
  IC50: 18 ± 6 µM

## CCCCc1nc(Cl)c(CO)n1Cc1ccc(-c2ccccc2-c2nn[nH]n2)cc1 [Losartan, reference compound]
[1]; Oryctolagus cuniculus
  IC50: > 100 µM
[1]
  relaxation of aortic rings (in words): did not produce relaxation at any of the concentration tested
[4]
  Nitrite (% vs vehicle): 99 ± 9 % vs vehicle
[3]; daily oral dose for 3 days
  Systolic blood pressure (mmHg), 30 min: 133 mmHg
  Systolic blood pressure (mmHg), 12 hrs: 135 mmHg
  Systolic blood pressure (mmHg), 24 hrs: 136 mmHg
[3]
  Systolic blood pressure (mmHg), Baseline: 143 mmHg

## CCCCc1nc(Cl)c(COC(=O)c2ccc(CO[N+](=O)[O-])cc2)n1Cc1ccc(-c2ccccc2-c2nn[nH]n2)cc1 [EX. 1, 2-butyl-4-chloro-1-[[2′-(1H-tetrazol-5-yl)[1,1′-biphenyl]-4-yl]methyl]-1H-imidazole-5-methanol 4-(nitrooxymethyl) benzoic acid ester]
[1]; Oryctolagus cuniculus
  IC50: 33 ± 12 µM
[2]
  IC50: 5 µM
